In ChEMBL document CHEMBL5260855, “Design, synthesis and biological evaluation of simplified analogues of MraY inhibitory natural product with rigid scaffold” (Bioorg Med Chem, 2021):

molecular target: T1, Phospho-N-acetylmuramoyl-pentapeptide-transferase (Staphylococcus aureus, UniProt P0C1R8); assay: Inhibition of Staphylococcus aureus MraY using UDP-MurNAc-dansylpentapeptide as substrate incubated for 3 hrs by fluorescence based microplate reader analysis
T1 sequence (P0C1R8 whole entry): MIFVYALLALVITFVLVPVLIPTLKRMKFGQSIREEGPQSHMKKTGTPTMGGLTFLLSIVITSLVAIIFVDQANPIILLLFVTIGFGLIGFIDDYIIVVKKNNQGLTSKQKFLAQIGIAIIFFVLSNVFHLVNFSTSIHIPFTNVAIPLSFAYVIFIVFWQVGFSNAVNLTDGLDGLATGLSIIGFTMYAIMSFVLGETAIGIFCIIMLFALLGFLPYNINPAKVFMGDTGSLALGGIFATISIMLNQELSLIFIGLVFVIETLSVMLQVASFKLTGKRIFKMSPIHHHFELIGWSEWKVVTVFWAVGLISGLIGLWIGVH

Row | IC50 [µM] | SMILES
1 | 2 | NC[C@H]1O[C@@H](O[C@@H](C#Cc2ccccc2)[C@H]2O[C@@H](n3ccc(=O)[nH]c3=O)[C@H](O)[C@@H]2O)[C@H](O)[C@@H]1O
2 | 0.65 | NC[C@H]1O[C@@H](O[C@@H](C#Cc2cccc(-c3ccccc3)c2)[C@H]2O[C@@H](n3ccc(=O)[nH]c3=O)[C@H](O)[C@@H]2O)[C@H](O)[C@@H]1O
3 | 32 | NC[C@H]1O[C@@H](O[C@@H](CCc2ccccc2)[C@H]2O[C@@H](n3ccc(=O)[nH]c3=O)[C@H](O)[C@@H]2O)[C@H](O)[C@@H]1O
4 | 0.3 | NC[C@H]1O[C@@H](O[C@@H](C#Cc2ccc(N)cc2)[C@H]2O[C@@H](n3ccc(=O)[nH]c3=O)[C@H](O)[C@@H]2O)[C@H](O)[C@@H]1O
5 | 1.5 | NC[C@H]1O[C@@H](O[C@@H](C#Cc2cccc(C(=O)O)c2)[C@H]2O[C@@H](n3ccc(=O)[nH]c3=O)[C@H](O)[C@@H]2O)[C@H](O)[C@@H]1O
6 | 0.59 | NC[C@H]1O[C@@H](O[C@@H](C#Cc2ccc(-c3ccccc3)cc2)[C@H]2O[C@@H](n3ccc(=O)[nH]c3=O)[C@H](O)[C@@H]2O)[C@H](O)[C@@H]1O
7 | 6.7 | NC[C@H]1O[C@@H](O[C@@H](C#Cc2cccc(NC(=O)c3ccccc3)c2)[C@H]2O[C@@H](n3ccc(=O)[nH]c3=O)[C@H](O)[C@@H]2O)[C@H](O)[C@@H]1O
8 | 0.95 | NC[C@H]1O[C@@H](O[C@@H](C#Cc2cccc(NS(=O)(=O)c3ccccc3)c2)[C@H]2O[C@@H](n3ccc(=O)[nH]c3=O)[C@H](O)[C@@H]2O)[C@H](O)[C@@H]1O
9 | 1 | NC[C@H]1O[C@@H](O[C@@H](C#Cc2ccc(NS(=O)(=O)c3ccccc3)cc2)[C@H]2O[C@@H](n3ccc(=O)[nH]c3=O)[C@H](O)[C@@H]2O)[C@H](O)[C@@H]1O
10 | 1.1 | NC[C@H]1O[C@@H](O[C@@H](C#Cc2cccc(C(=O)Nc3ccccc3)c2)[C@H]2O[C@@H](n3ccc(=O)[nH]c3=O)[C@H](O)[C@@H]2O)[C@H](O)[C@@H]1O
11 | 4.4 | NC[C@H]1O[C@@H](O[C@@H](C#Cc2ccc(C(=O)O)cc2)[C@H]2O[C@@H](n3ccc(=O)[nH]c3=O)[C@H](O)[C@@H]2O)[C@H](O)[C@@H]1O
12 | 90 | C#C[C@H](O[C@@H]1O[C@H](CN)[C@@H](O)[C@H]1O)[C@H]1O[C@@H](n2ccc(=O)[nH]c2=O)[C@H](O)[C@@H]1O
13 | 1.4 | NC[C@H]1O[C@@H](O[C@@H](C#Cc2ccc(NC(=O)c3ccccc3)cc2)[C@H]2O[C@@H](n3ccc(=O)[nH]c3=O)[C@H](O)[C@@H]2O)[C@H](O)[C@@H]1O
14 | 1.4 | Cc1cccc(C#C[C@H](O[C@@H]2O[C@H](CN)[C@@H](O)[C@H]2O)[C@H]2O[C@@H](n3ccc(=O)[nH]c3=O)[C@H](O)[C@@H]2O)c1
15 | 2.1 | NC[C@H]1O[C@@H](O[C@@H](C#Cc2ccccc2N)[C@H]2O[C@@H](n3ccc(=O)[nH]c3=O)[C@H](O)[C@@H]2O)[C@H](O)[C@@H]1O
16 | 2 | Cc1ccccc1C#C[C@H](O[C@@H]1O[C@H](CN)[C@@H](O)[C@H]1O)[C@H]1O[C@@H](n2ccc(=O)[nH]c2=O)[C@H](O)[C@@H]1O
17 | 1.8 | NC[C@H]1O[C@@H](O[C@@H](C#Cc2cccc(N)c2)[C@H]2O[C@@H](n3ccc(=O)[nH]c3=O)[C@H](O)[C@@H]2O)[C@H](O)[C@@H]1O
18 | 5.7 | NC[C@H]1O[C@@H](O[C@@H](C#Cc2ccccc2C(=O)O)[C@H]2O[C@@H](n3ccc(=O)[nH]c3=O)[C@H](O)[C@@H]2O)[C@H](O)[C@@H]1O
19 | 0.9 | NC[C@H]1O[C@@H](O[C@@H](C#Cc2ccc(C(=O)Nc3ccccc3)cc2)[C@H]2O[C@@H](n3ccc(=O)[nH]c3=O)[C@H](O)[C@@H]2O)[C@H](O)[C@@H]1O
20 | 1.3 | Cc1ccc(C#C[C@H](O[C@@H]2O[C@H](CN)[C@@H](O)[C@H]2O)[C@H]2O[C@@H](n3ccc(=O)[nH]c3=O)[C@H](O)[C@@H]2O)cc1

tested on: not listed separately; assay: Inhibition of bacterial MraY; parameters: species or system Bacteria

Row | IC50 [µM] | SMILES
21 | 0.0027 | CCCCCCCCCCCCCCCC[C@H](NC(C)=O)C(=O)NCCCN[C@H](C(=O)O)[C@H](O[C@@H]1O[C@H](CN)[C@@H](O)[C@H]1O)[C@H]1O[C@@H](n2ccc(=O)[nH]c2=O)[C@H](O)[C@@H]1O
22 | 0.0038 | CCCCCCCCCCCCCCCCC[C@H]1CN[C@@H]([C@H](O[C@@H]2O[C@H](CN)[C@@H](O)[C@H]2O)[C@H]2O[C@@H](n3ccc(=O)[nH]c3=O)[C@H](O)[C@@H]2O)C(=O)N(C)[C@@H]1C(=O)O

Row | SMILES | IC50 [µM]
23 | CC(C)C[C@H](NC(=O)[C@@H](NC(=O)N[C@H](C(=O)O)C(C)C)[C@@H]1CCNC(=N)N1)C(=O)NCCCN[C@H](C(=O)O)[C@H](O[C@@H]1O[C@H](CN)[C@@H](O)[C@H]1O)[C@H]1O[C@@H](n2ccc(=O)[nH]c2=O)[C@H](O)[C@@H]1O [MURAMYCIN D2] | 0.025

molecular target: T2, Phospho-N-acetylmuramoyl-pentapeptide-transferase (Bacillus subtilis (strain 168), UniProt Q03521); assay: Inhibition of Bacillus subtilis MraY
T2 sequence (Q03521 whole entry): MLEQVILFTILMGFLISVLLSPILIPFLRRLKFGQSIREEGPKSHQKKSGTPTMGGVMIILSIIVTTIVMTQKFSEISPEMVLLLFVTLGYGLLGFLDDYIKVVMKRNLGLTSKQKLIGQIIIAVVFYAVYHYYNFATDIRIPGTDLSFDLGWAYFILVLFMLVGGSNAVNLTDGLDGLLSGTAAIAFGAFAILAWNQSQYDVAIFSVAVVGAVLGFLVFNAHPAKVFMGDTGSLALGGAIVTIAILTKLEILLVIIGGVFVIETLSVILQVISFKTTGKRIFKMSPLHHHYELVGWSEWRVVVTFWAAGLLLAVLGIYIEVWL

Row | IC50 [µM] | SMILES
24 | 50 | NC[C@H]1O[C@@H](O[C@@H](c2cn(Cc3ccc(Cc4ccc(C(=O)c5ccccc5)cc4)cc3)nn2)[C@H]2O[C@@H](n3ccc(=O)[nH]c3=O)[C@H](O)[C@@H]2O)[C@H](O)[C@@H]1O
